From the NIST ThermoML archive (doi:10.1021/je9008969)
± gives the expanded uncertainty stated by the source.

Columns and labels:
[1] = cn = amount concentration of the nth substance listed, in mol/dm3; details: 298.15 K, 101 kPa, Liquid, Alternating current cell with electrodes
[2] = Liquid; Distillation
[3] = mn = molality of the nth substance listed, in mol/kg; details: 298.15 K, 101 kPa, Liquid, Alternating current cell with electrodes

CCCC[n+]1ccccc1.[O-][Cl+3]([O-])([O-])[O-] [1-butylpyridinium perchlorate] + CC(=O)CC(C)C
[1]
Details	molar conductivity [S·m2/mol]
c1 = 0.0001223	0.00753 ± 0.00015
c1 = 0.0001384	0.00709 ± 0.00014
c1 = 0.0001791	0.00669 ± 0.00013
c1 = 0.0002332	0.00627 ± 0.00013
c1 = 0.0003126	0.00579 ± 0.00012
c1 = 0.0004224	0.00533 ± 0.00011
c1 = 0.0005585	0.0049 ± 9.8e-05
c1 = 0.0007544	0.00446 ± 8.9e-05
c1 = 0.001004	0.00408 ± 8.2e-05
c1 = 0.001345	0.00369 ± 7.4e-05
c1 = 0.001798	0.00335 ± 6.7e-05
c1 = 0.002419	0.00303 ± 6.1e-05
c1 = 0.00324	0.00274 ± 5.5e-05
c1 = 0.004348	0.00248 ± 5e-05
c1 = 0.005787	0.00225 ± 4.5e-05

CCCCCCCCCCCCCCCC[n+]1ccccc1.[O-][Cl+3]([O-])([O-])[O-] [1-hexadecylpyridinium perchlorate] + CC(=O)CC(C)C
[1]
Details	molar conductivity [S·m2/mol]
c1 = 9.238e-05	0.00688 ± 0.00014
c1 = 0.0001329	0.0064 ± 0.00013
c1 = 0.0001691	0.00608 ± 0.00012
c1 = 0.0002261	0.00565 ± 0.00011
c1 = 0.0002954	0.00527 ± 0.00011
c1 = 0.0004138	0.0048 ± 9.6e-05
c1 = 0.0005388	0.00444 ± 8.9e-05
c1 = 0.0007214	0.00406 ± 8.1e-05
c1 = 0.0009671	0.0037 ± 7.4e-05
c1 = 0.001303	0.00335 ± 6.7e-05
c1 = 0.001719	0.00306 ± 6.1e-05
c1 = 0.002318	0.00277 ± 5.5e-05
c1 = 0.00312	0.0025 ± 5e-05
c1 = 0.00417	0.00226 ± 4.5e-05
c1 = 0.005569	0.00205 ± 4.1e-05

CC(=O)CC(C)C [4-methylpentan-2-one]
Details	Normal boiling temperature [°C]
[2]	114.20 ± 0.5

CCCCCC[N+](CC)(CC)CC.[O-][Cl+3]([O-])([O-])[O-] [N,N,N-triethyl-1-hexanaminium perchlorate] + CC(=O)CC(C)C
[1]
Details	molar conductivity [S·m2/mol]
c1 = 9.437e-05	0.00808 ± 0.00016
c1 = 0.0001362	0.00766 ± 0.00015
c1 = 0.0001739	0.00732 ± 0.00015
c1 = 0.0002195	0.00695 ± 0.00014
c1 = 0.0002862	0.00655 ± 0.00013
c1 = 0.0003746	0.00614 ± 0.00012
c1 = 0.0004856	0.00574 ± 0.00012
c1 = 0.0006345	0.00534 ± 0.00011
c1 = 0.000817	0.00498 ± 0.0001
c1 = 0.001056	0.00462 ± 9.2e-05
c1 = 0.001385	0.00426 ± 8.5e-05
c1 = 0.00181	0.00392 ± 7.8e-05
c1 = 0.002334	0.00362 ± 7.2e-05
c1 = 0.003049	0.00333 ± 6.7e-05
c1 = 0.003975	0.00307 ± 6.1e-05

CCCCCCC[N+](CCCCCCC)(CCCCCCC)CCCCCCC.[O-][Cl+3]([O-])([O-])[O-] [N,N,N-triheptylheptan-1-aminium perchlorate] + CC(=O)CC(C)C
[1]
Details	molar conductivity [S·m2/mol]
c1 = 7.179e-05	0.00765 ± 0.00015
c1 = 0.0001036	0.00729 ± 0.00015
c1 = 0.0001318	0.00704 ± 0.00014
c1 = 0.0001594	0.00683 ± 0.00014
c1 = 0.0002244	0.00639 ± 0.00013
c1 = 0.0002974	0.00603 ± 0.00012
c1 = 0.000405	0.00563 ± 0.00011
c1 = 0.0005438	0.00525 ± 0.00011
c1 = 0.0007266	0.00487 ± 9.7e-05
c1 = 0.0009775	0.0045 ± 9e-05
c1 = 0.001306	0.00414 ± 8.3e-05
c1 = 0.001751	0.0038 ± 7.6e-05
c1 = 0.002355	0.00348 ± 7e-05
c1 = 0.003149	0.00319 ± 6.4e-05
c1 = 0.004208	0.00292 ± 5.8e-05

CCCCCCCCCCCCCCCC[N+](C)(C)C.[O-][Cl+3]([O-])([O-])[O-] [N,N,N-trimethyl-1-hexadecanaminium perchlorate] + CC(=O)CC(C)C
[1]
Details	molar conductivity [S·m2/mol]
c1 = 0.0001172	0.00637 ± 0.00013
c1 = 0.0001513	0.006 ± 0.00012
c1 = 0.0002096	0.00553 ± 0.00011
c1 = 0.0002636	0.00519 ± 0.0001
c1 = 0.0003584	0.00476 ± 9.5e-05
c1 = 0.0005071	0.00427 ± 8.5e-05
c1 = 0.0006588	0.00394 ± 7.9e-05
c1 = 0.0008706	0.00359 ± 7.2e-05
c1 = 0.001168	0.00326 ± 6.5e-05
c1 = 0.001547	0.00295 ± 5.9e-05
c1 = 0.002106	0.00265 ± 5.3e-05
c1 = 0.002797	0.0024 ± 4.8e-05
c1 = 0.00376	0.00216 ± 4.3e-05
c1 = 0.005012	0.00194 ± 3.9e-05
c1 = 0.006683	0.00175 ± 3.5e-05

CCCCCCCCCCCCCCCCCC[N+](C)(C)C.[O-][Cl+3]([O-])([O-])[O-] [N,N,N-trimethyl-1-octadecanaminium perchlorate] + CC(=O)CC(C)C
[1]
Details	molar conductivity [S·m2/mol]
c1 = 0.0001049	0.00634 ± 0.00013
c1 = 0.0001371	0.00601 ± 0.00012
c1 = 0.0001741	0.00568 ± 0.00011
c1 = 0.0002263	0.00531 ± 0.00011
c1 = 0.0002892	0.00497 ± 9.9e-05
c1 = 0.0003809	0.00458 ± 9.2e-05
c1 = 0.0004892	0.00425 ± 8.5e-05
c1 = 0.0006311	0.00392 ± 7.8e-05
c1 = 0.0008148	0.00361 ± 7.2e-05
c1 = 0.001062	0.0033 ± 6.6e-05
c1 = 0.001386	0.00302 ± 6e-05
c1 = 0.001802	0.00276 ± 5.5e-05
c1 = 0.002337	0.00251 ± 5e-05
c1 = 0.003032	0.00229 ± 4.6e-05

CCCC[N+](CCCC)(CCCC)CCCC.[O-][Cl+3]([O-])([O-])[O-] [tetrabutylammonium perchlorate] + CC(=O)CC(C)C
[1]
Details	molar conductivity [S·m2/mol]
c1 = 9.747e-05	0.00773 ± 0.00015
c1 = 0.0001341	0.00737 ± 0.00015
c1 = 0.0001902	0.00693 ± 0.00014
c1 = 0.0002367	0.00662 ± 0.00013
c1 = 0.0003186	0.00622 ± 0.00012
c1 = 0.0004325	0.00577 ± 0.00012
c1 = 0.0005781	0.00535 ± 0.00011
c1 = 0.0007683	0.00495 ± 9.9e-05
c1 = 0.001016	0.00457 ± 9.1e-05
c1 = 0.00138	0.00418 ± 8.4e-05
c1 = 0.001839	0.00383 ± 7.7e-05
c1 = 0.002457	0.00351 ± 7e-05
c1 = 0.003309	0.0032 ± 6.4e-05
c1 = 0.004418	0.00292 ± 5.8e-05
c1 = 0.005893	0.00267 ± 5.3e-05

CC[N+](CC)(CC)CC.[O-][Cl+3]([O-])([O-])[O-] [tetraethylammonium perchlorate] + CC(=O)CC(C)C
[1]
Details	molar conductivity [S·m2/mol]
c1 = 1.622e-05	0.00917 ± 0.00018
c1 = 2.705e-05	0.00898 ± 0.00018
c1 = 3.499e-05	0.00888 ± 0.00018
c1 = 4.526e-05	0.00874 ± 0.00017
c1 = 5.823e-05	0.00852 ± 0.00017
c1 = 7.469e-05	0.0083 ± 0.00017
c1 = 9.761e-05	0.00812 ± 0.00016

CCCCCC[N+](CCCCCC)(CCCCCC)CCCCCC.[O-][Cl+3]([O-])([O-])[O-] [tetrahexylammonium perchlorate] + CC(=O)CC(C)C
[1]
Details	molar conductivity [S·m2/mol]
c1 = 9.876e-05	0.00727 ± 0.00015
c1 = 0.0001295	0.00705 ± 0.00014
c1 = 0.0001762	0.00672 ± 0.00013
c1 = 0.0002207	0.00645 ± 0.00013
c1 = 0.0002798	0.00613 ± 0.00012
c1 = 0.0003687	0.00578 ± 0.00012
c1 = 0.0004788	0.00543 ± 0.00011
c1 = 0.0006209	0.00509 ± 0.0001
c1 = 0.0008088	0.00475 ± 9.5e-05
c1 = 0.001056	0.00441 ± 8.8e-05
c1 = 0.00138	0.00409 ± 8.2e-05
c1 = 0.001782	0.0038 ± 7.6e-05
c1 = 0.002321	0.00351 ± 7e-05
c1 = 0.003006	0.00324 ± 6.5e-05
c1 = 0.003917	0.00299 ± 6e-05

C[N+](C)(C)C.[O-][Cl+3]([O-])([O-])[O-] [tetramethylammonium perchlorate] + CC(=O)CC(C)C
[1]
Details	molar conductivity [S·m2/mol]
c1 = 9.338e-06	0.0113 ± 0.00023
c1 = 1.196e-05	0.0112 ± 0.00022
c1 = 1.53e-05	0.0111 ± 0.00022
c1 = 1.98e-05	0.0108 ± 0.00021
c1 = 2.582e-05	0.0105 ± 0.00021
c1 = 3.276e-05	0.0101 ± 0.0002
c1 = 4.292e-05	0.00975 ± 0.00019
c1 = 5.528e-05	0.00934 ± 0.00019
c1 = 7.008e-05	0.00894 ± 0.00018
c1 = 9.231e-05	0.00847 ± 0.00017

CCCCC[N+](CCCCC)(CCCCC)CCCCC.[O-][Cl+3]([O-])([O-])[O-] [tetrapentylammonium perchlorate] + CC(=O)CC(C)C
[3]
Details	molar conductivity [S·m2/mol]
m1 = 9.66e-05	0.00743 ± 0.00015
m1 = 0.0001207	0.00719 ± 0.00014
m1 = 0.0001685	0.0068 ± 0.00014
m1 = 0.0002146	0.00647 ± 0.00013
m1 = 0.0002922	0.00606 ± 0.00012
m1 = 0.0004004	0.00562 ± 0.00011
m1 = 0.0005296	0.00524 ± 0.00011
m1 = 0.0007017	0.00487 ± 9.7e-05
m1 = 0.0009021	0.00468 ± 9.4e-05
m1 = 0.001262	0.00413 ± 8.3e-05
m1 = 0.001674	0.0038 ± 7.6e-05
m1 = 0.002257	0.00347 ± 6.9e-05
m1 = 0.003014	0.00318 ± 6.4e-05
m1 = 0.004036	0.0029 ± 5.8e-05
m1 = 0.0054	0.00265 ± 5.3e-05
